Data reported in US12409180B2, “Formulation production process” (Verona Pharma PLC, priority 2022, dated 2025).

Experiments:
Type in all cases: physicochemical
[1] = Impurities determination (related substances) by HPLC of products after sterilisation; details: dry heat treatment at temperatures of from 150° C. to 170° C.
Experimental: (§1) Impurities determination was performed in duplicate with the key high performance liquid chromatography (HPLC) parameters shown in Table 2.
(§2) The assays and related substances of the products obtained by each of sterilisation techniques A to F were assessed by the HPLC methods described above.

[2] = Assay testing by HPLC of products after sterilisation; details: dry heat treatment at temperatures of from 150° C. to 170° C.
Experimental: (§3) Assay testing was performed in duplicate with the key high performance liquid chromatography (HPLC) parameters shown in Table 1.
as §2

[3] = Overall assessment of products (assay and related substances) after sterilisation
Experimental: as §3, §1, §2

changes in purity [1]: no significant changes
changes in assay [2]: no significant changes
changes observed (assay and related substances) ([3]; technique C: dry heat treatment of dry powder, 150° C. for 150 minutes): No significant changes observed.
changes observed (assay and related substances) ([3]; technique D: dry heat treatment of dry powder, 160° C. for 120 minutes): No significant changes observed.
changes observed (assay and related substances) ([3]; technique E: dry heat treatment of dry powder, 170° C. for 60 minutes): No significant changes observed.
SMILES: COc1cc2c(cc1OC)-c1c/c(=N\c3c(C)cc(C)cc3C)n(CCNC(N)=O)c(=O)n1CC2 [micronised ensifentrine, N-(2-{(2E)-9,10-dimethoxy-4-oxo-2-[(2,4,6-trimethylphenyl)imino]-6,7-dihydro-2H-pyrimido [6,1-a]isoquinolin-3(4H)-yl}ethyl) urea]
